Data set [1] is described as follows: Nontargeted LC–HRMS detection of ingredients in rat plasma after oral administration of each constituent crude drug. As to conditions: n = 2.
Protocol: The rats were fasted for 16 h and then orally administered Angelicae Acutilobae Radix, Paeoniae Radix, Rehmanniae Radix, or Cnidii Rhizoma extract powder suspended in distilled water at a dosage of 1 g/10 mL/kg. […] The two sampling points (1 and 10 h) were set to extensively explore both fast- and slow-absorbing ingredients. The blood samples were centrifuged at 1700×g for 15 min at 4 °C to obtain plasma, and the plasma samples were stored at less than − 75 °C until LC–HRMS analysis.
Before LC–HRMS analysis, the plasma samples were deproteinized using methanol as follows: 100 µL of plasma sample was mixed with 700 µL of methanol and then vortexed for 2 min. After centrifugation at 7000×g for 5 min at 4 °C, the supernatant was collected and then dried using a centrifugal evaporator, dissolved the dried residue in 80 μL of the initial mobile phase of LC, and recentrifuged at 7000×g for 5 min at 4 °C. Finally, a 5 μL aliquot of the supernatant was injected into the LC–HRMS system and analyzed in both positive and negative ion modes.
We interfaced the Acquity Ultra-Performance Liquid Chromatography System (Waters) to a Xevo G2-XS quadrupole time-of-flight MS system (Waters) equipped with an electrospray ionization probe in sensitivity mode. All ions within m/z = 50–1000 were acquired by the MS^E method (data-independent acquisition). […] We created two acquisition functions with different collision energies: a low-energy function with 6 eV collision energy and a high-energy function with 15–40 eV collision energy. The mass spectrometer resolution was set at more than 20,000.
A further data set addresses T1, human TRPV4 (Homo sapiens, UniProt Q9HBA0).
T1 construct: The full length of each of human transient receptor potential ankyrin 1 (TRPA1); expressed in transfected cells
Kind of data set: Ca2+ influx assay for TRP channel agonistic activity in T-REx-293 cells. It counts as cell-based. The following applies: 10 µmol/L test ingredient, positive control 4 µmol/L GSK1016790A, read-out: % Activation compared to positive control, TRPV4. From the text: (§1) The full length of each of human transient receptor potential ankyrin 1 (TRPA1), transient receptor potential cation channel subfamily V member 1 (TRPV1), transient receptor potential cation channel subfamily V member 4 (TRPV4), and transient receptor potential cation channel subfamily M member 8 (TRPM8) coding region was introduced into a pcDNA4/TO vector (Thermo Fisher Scientific, Waltham, MA, USA) and transfected into T-REx-293 cells (Thermo Fisher Scientific) to obtain stable cell lines expressing human TRPA1, TRPV1, TRPV4, and TRPM8. Next, the cells were cultured in Dulbecco’s Modified Eagle Medium containing 10% fetal bovine serum (FBS), 4 mM L-glutamine, and penicillin/streptomycin.
(§2) First, cells were suspended in culture medium with 1 µg/mL of tetracycline and seeded on a poly-D-lysine-coated 96-well plate at a density of 2.5 × 10^4 cells/well overnight. Next, the cells were used for Ca^2+ influx assay, as described previously with minor modifications, using a FLIPR Calcium 5 Assay Kit (Molecular Devices, San Jose, CA, USA). Briefly, cells were incubated in 80 µL of a Ca^2+-chelating dye dissolved in assay buffer at pH 7.4 (Hanks’ Balanced Salt Solution containing 20 mmol/L of 4-(2-hydroxyethyl)-1-piperazineethanesulfonic acid [HEPES]) for 30 min at room temperature. Next, the plates were assayed in a FlexStation 3 microplate reader (Molecular Devices). The fluorescence intensity was traced entirely for 80 s, and the fluorescence baseline was measured 20 s before application of 20 µL of the test compound (final concentration = 10 µmol/L). The response was expressed as percentage activation as follows:
(§3) Relative fluorescence units (RFU) (% activation) = ([RFUmax − RFUbaseline]/RFUbaseline) × 100
(§4) The activity of each test compound against TRPA1, TRPV1, TRPV4, and TRPM8 was represented as the relative enhancement of the Ca^2+ influx of each positive control as follows: 20 µmol/L of allyl isothiocyanate (TRPA1 agonist), 2 µmol/L of capsaicin (TRPV1 agonist), 4 µmol/L of GSK1016790A (TRPV4 agonist), and 20 µmol/L of icilin (TRPM8 agonist). The dose–response curve was fitted to the sigmoidal dose–response equation (Top: maximum response of each compound), and EC50 was calculated using GraphPad prism 7 software (GraphPad, San Diego, CA, USA).
(§5) Calcium ion influx into TRPA1-, TRPV1-, TRPV4-, or TRPM8-expressing T-REx-293 cells was measured to evaluate the agonistic effect of shimotsuto ingredients on TRP channels. The action of 10 µmol/L of each test ingredient was represented as the relative enhancement of the Ca^2+ influx of each positive control, indicated as follows: 20 µmol/L each of allyl isothiocyanate (TRPA1 agonist), 2 µmol/L capsaicin (TRPV1 agonist), 4 µmol/L GSK1016790A (TRPV4 agonist), and 20 µmol/L icilin (TRPM8 agonist). Dose–response tests of shimotsuto ingredients against TRPA1 were performed to calculate EC50.

The target in another data set is T2, human TRPA1 (Homo sapiens, UniProt O75762).
T2 construct: The full length of each of human transient receptor potential ankyrin 1 (TRPA1); expressed in transfected cells
The data set is described as above. The format is cell-based. The following applies: for activation at 10 µM: T-REx-293, 10 µmol/L test ingredient, positive control 20 µmol/L allyl isothiocyanate, read-out: % Activation compared to positive control, TRPA1; for Activation of TRPA1 (in words): TRP stable expression cell lines.
Excerpt: as §1, §2, §3, §4, §5

A further data set has as its target T3, human TRPV1 (Homo sapiens, UniProt Q8NER1).
T3 construct: The full length of each of human transient receptor potential ankyrin 1 (TRPA1), transient receptor potential cation channel subfamily V member 1 (TRPV1); expressed in transfected cells
Described as above. It counts as cell-based. The following applies: 10 µmol/L test ingredient, positive control 2 µmol/L capsaicin, read-out: % Activation compared to positive control, TRPV1.
Excerpt: as §1, §2, §3, §4, §5

The target in another data set is T4, human TRPM8 (Homo sapiens, UniProt Q7Z2W7).
T4 construct: The full length of each of human transient receptor potential ankyrin 1 (TRPA1); expressed in transfected cells
The data set is described as above. The following applies: 10 µmol/L test ingredient, positive control 20 µmol/L icilin, read-out: % Activation compared to positive control, TRPM8. It counts as cell-based.
Excerpt: as §1, §2, §3, §4, §5

Data set [2] is described as follows: Pharmacokinetics of ingredients in rat plasma after oral administration of shimotsuto (targeted LC–MS/MS). It counts as in vivo. As to conditions: in vivo. The text has this: The plasma levels of nine ingredients were quantified using quantitative (targeted) analysis. Among them, seven ingredients (catalpol, paeoniflorin, albiflorin, senkyunolide A, butylphthalide, ferulic acid, and ligustilide) are candidate active ingredients in shimotsuto (Table 1). Two ingredients (bergapten and 8-debenzoylpaeoniflorin) are shimotsuto ingredients which were detected and identified in shimotsuto-treated rat plasma using nontargeted LC–HRMS analysis. The nine ingredients were quantified by collecting plasma samples at 0–24 h after shimotsuto administration, pretreating with the following procedures, and then analyzing by targeted LC–MS/MS using selected reaction-monitoring mode. The LC–MS/MS system was composed of a triple quadruple MS (TripleQuad6500; SCIEX, Framingham, MA, USA) and an Agilent 1290 Infinity LC system (Agilent Technologies, Santa Clara, CA, USA). For highly sensitive and selective quantitative (targeted) analysis of each compound, we preliminarily examined optimal pretreatment and analytical LC–MS/MS methods (e.g., MS parameters and LC conditions).
For quantification of catalpol, paeoniflorin, albiflorin, ferulic acid, and senkyunolide A in plasma, 100 µL of plasma sample was mixed with 20 µL of methanol (or working solution) and 20 µL of internal standard (niflumic acid or swertiamarin) and pretreated by deproteinization using 500 µL of acetonitrile. […] Finally, the dried residue was dissolved in 60 µL of the specific HPLC mobile phase used for analysis and then a 10 μL aliquot was injected into the LC–MS/MS system.
For quantification of ligustilide and butylphthalide in plasma, 200 µL of plasma sample was mixed with 40 µL of methanol (or working solution) and 40 µL of internal standard (imperatorin) and centrifuged at 15000×g for 10 min at 4 °C, the whole volume of supernatant was collected and subsequently pretreated by solid-phase extraction using Oasis HLB Extraction Cartridge (Waters, Milford, MA, USA). The acetonitrile elutes were collected and then dried under a steam of nitrogen gas. Finally, the dried residue was dissolved in 70 µL of the specific HPLC mobile phase and injected 20 µL into the LC–MS/MS system.
For quantification of bergapten in plasma, 100 µL of plasma sample was mixed with 20 µL of methanol (or working solution) and 20 µL of internal standard (niflumic acid) and pretreated by solid-phase extraction using an Oasis HLB 96-well µElution plate. Next, the mixied elutes of acetonitrile and isopropyl alcohol (1:1, v/v) were collected and then dried under a steam of nitrogen gas. Finally, the dried residue was dissolved in 60 µL of the specific HPLC mobile phase and injected 10 µL into the LC–MS/MS system.
For quantification of 8-debenzoylpaeoniflorin in plasma, 100 µL of plasma sample was mixed with 20 µL of methanol (or working solution) and 20 µL of internal standard (niflumic acid) and pretreated by liquid–liquid extraction using 500 µL of ethyl acetate. […] The dried residue was dissolved in 60 µL of the specific HPLC mobile phase and injected 10 µL into the LC–MS/MS system.
In addition, pharmacokinetic parameters of the shimotsuto ingredients detected in the plasma, such as the maximum concentration (Cmax) and area under the plasma level–time curve (AUC0−last), were calculated by noncompartmental moment analysis using Phoenix WinNonlin software (Certara L.P., St. Louis, MO, USA).

The conditions of data set [3]: cited from earlier work.
Where [4] appears, read: oral Angelicae Acutilobae Radix 1 g/kg.

Each structure is given as a SMILES string. Read-outs that look alike come from different tables or passages of the source.

T4 sequence (Q7Z2W7 whole entry): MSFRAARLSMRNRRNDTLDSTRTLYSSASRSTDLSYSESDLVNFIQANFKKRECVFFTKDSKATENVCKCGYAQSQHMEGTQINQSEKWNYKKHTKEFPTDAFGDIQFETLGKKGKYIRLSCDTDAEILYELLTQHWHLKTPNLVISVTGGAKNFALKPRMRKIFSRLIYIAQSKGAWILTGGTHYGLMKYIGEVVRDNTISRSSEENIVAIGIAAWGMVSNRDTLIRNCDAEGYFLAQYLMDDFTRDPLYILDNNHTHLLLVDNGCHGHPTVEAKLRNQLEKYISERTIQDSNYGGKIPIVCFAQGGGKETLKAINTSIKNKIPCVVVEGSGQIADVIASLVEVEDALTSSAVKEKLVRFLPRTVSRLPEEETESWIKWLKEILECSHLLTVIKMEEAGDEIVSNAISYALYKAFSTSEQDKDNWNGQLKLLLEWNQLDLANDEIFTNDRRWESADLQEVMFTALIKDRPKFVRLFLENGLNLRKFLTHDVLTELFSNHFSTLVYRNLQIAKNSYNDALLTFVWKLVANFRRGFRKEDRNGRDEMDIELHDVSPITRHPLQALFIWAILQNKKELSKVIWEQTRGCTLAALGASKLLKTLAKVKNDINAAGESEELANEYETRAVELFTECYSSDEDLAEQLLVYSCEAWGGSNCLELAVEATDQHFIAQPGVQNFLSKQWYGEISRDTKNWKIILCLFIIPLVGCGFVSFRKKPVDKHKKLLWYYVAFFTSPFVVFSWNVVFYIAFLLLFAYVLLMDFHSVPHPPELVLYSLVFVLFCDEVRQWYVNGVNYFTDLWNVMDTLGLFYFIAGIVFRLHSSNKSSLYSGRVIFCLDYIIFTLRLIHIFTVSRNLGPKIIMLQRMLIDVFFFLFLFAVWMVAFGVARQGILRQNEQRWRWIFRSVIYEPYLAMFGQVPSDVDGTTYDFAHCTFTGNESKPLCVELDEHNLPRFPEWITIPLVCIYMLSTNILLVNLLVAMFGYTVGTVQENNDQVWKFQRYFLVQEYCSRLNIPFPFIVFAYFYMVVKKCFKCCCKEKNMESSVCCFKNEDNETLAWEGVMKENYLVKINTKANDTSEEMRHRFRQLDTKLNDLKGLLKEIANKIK
T1 sequence (Q9HBA0 whole entry): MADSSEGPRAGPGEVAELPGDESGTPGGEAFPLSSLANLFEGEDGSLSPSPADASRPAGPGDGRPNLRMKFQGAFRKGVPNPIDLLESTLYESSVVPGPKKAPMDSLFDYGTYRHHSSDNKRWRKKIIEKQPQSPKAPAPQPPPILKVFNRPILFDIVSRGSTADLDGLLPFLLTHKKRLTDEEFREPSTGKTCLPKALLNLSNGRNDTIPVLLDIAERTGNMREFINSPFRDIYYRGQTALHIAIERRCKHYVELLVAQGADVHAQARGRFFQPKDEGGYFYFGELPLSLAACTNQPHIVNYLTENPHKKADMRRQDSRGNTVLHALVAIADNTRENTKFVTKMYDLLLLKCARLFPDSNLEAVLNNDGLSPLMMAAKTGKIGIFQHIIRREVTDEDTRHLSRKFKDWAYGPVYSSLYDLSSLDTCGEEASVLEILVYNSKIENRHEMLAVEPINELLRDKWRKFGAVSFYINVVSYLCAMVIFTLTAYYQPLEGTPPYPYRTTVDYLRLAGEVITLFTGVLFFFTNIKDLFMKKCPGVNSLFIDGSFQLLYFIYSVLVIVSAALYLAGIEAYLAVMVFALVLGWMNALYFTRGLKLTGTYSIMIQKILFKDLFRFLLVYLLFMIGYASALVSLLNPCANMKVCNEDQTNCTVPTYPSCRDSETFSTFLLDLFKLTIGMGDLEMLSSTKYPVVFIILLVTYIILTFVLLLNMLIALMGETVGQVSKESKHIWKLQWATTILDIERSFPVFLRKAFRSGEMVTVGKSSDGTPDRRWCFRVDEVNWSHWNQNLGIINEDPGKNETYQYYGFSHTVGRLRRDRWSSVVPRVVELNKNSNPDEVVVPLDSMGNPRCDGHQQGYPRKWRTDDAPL
T2 sequence (O75762 whole entry): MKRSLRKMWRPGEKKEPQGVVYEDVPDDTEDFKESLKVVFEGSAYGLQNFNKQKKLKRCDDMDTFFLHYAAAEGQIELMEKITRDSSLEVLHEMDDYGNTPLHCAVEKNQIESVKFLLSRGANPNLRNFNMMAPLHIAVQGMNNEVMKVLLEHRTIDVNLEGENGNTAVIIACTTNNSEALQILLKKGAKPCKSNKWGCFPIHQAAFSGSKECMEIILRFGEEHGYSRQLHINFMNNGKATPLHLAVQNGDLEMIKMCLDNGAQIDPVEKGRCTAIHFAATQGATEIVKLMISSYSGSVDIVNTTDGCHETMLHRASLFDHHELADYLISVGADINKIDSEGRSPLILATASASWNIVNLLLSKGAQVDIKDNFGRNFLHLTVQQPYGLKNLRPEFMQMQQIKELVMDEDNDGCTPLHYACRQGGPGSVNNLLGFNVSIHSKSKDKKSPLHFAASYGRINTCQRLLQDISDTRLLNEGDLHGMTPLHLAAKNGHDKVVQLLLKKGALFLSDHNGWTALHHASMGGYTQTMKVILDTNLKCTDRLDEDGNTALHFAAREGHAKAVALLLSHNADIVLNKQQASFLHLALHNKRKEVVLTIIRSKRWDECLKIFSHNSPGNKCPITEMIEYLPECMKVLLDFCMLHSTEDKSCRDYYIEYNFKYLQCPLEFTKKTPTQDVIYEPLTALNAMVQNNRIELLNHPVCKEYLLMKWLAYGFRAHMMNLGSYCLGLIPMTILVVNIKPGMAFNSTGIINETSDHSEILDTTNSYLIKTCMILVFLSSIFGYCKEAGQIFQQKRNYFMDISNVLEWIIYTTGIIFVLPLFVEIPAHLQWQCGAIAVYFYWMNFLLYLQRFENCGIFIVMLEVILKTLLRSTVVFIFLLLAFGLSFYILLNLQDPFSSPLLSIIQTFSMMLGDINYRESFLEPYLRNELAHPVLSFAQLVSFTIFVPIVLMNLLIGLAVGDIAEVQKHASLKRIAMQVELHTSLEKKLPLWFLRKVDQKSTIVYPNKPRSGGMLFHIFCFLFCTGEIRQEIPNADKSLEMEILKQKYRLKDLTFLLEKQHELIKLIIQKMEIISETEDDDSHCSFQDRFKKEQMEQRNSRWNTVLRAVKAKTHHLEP
T3 sequence (Q8NER1 whole entry): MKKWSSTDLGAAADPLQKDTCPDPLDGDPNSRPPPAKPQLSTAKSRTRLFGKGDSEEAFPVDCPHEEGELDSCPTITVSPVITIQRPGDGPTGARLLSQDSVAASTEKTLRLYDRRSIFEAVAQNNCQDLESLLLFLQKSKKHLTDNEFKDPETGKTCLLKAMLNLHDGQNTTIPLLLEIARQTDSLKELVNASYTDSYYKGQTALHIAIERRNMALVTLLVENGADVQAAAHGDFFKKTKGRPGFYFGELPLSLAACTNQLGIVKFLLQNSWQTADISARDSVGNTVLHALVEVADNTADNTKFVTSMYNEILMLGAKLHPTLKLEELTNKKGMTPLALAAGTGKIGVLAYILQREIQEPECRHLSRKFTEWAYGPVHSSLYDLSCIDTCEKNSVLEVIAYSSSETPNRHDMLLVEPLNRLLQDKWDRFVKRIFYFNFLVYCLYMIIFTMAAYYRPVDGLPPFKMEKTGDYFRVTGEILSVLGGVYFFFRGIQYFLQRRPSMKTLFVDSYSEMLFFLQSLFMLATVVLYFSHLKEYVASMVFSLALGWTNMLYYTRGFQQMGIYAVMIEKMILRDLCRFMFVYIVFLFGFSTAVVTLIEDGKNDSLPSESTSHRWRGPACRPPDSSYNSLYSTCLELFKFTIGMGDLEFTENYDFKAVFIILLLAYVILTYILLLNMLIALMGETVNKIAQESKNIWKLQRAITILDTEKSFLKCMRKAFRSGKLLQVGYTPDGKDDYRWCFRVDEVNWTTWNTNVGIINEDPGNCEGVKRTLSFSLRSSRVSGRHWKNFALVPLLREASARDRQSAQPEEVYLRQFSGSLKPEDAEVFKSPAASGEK

As for `CCCC=C1OC(=O)c2ccccc21` [3-Butylidenephthalide], in data set [1] (oral Cnidii Rhizoma 1 g/kg), the “Plasma collected 1 h postadministration (detection)” value is recorded as “++ (The number of + signs represent the sample number in which the ingredient was detected in the plasma after administration of each constituent crude drug of shimotsuto (n = 2 per sampling time per crude drug))” and the “Plasma collected 10 h postadministration (detection)” value is reported as “Not detected”.

In general, Cmax refers to the highest concentration seen after dosing. One may read the Tmax as the time from dosing to the highest level. For the molecule `CC12CC3(O)OC(O1)C1(CO)C3CC21OC1OC(CO)C(O)C(O)C1O` (centres unmarked) [8-Debenzoylpaeoniflorin], at human TRPV4, the activation at 10 µM came out at 1%. In addition, at human TRPA1, the activation at 10 µM was 30% and the “Activation of TRPA1 (in words)” value is reported as “slightly activated”. Further, the activation at 10 µM on human TRPV1 came out at 1%. Further, the activation at 10 µM on human TRPM8 stood at 2%. In data set [2] (rat), the “Cmax compared to paeoniflorin” value is on record as “approximately tenfold”. Further, in data set [2] (rat, po, 1 g/kg), the AUC(0-t) came out at 811 ng·h/mL, the Cmax came out at 466 ng/mL and the Tmax was 60 min. Moreover, in data set [1] (oral Paeoniae Radix 1 g/kg), the “Plasma collected 1 h postadministration (detection)” value is recorded as “++ (The number of + signs represent the sample number in which the ingredient was detected in the plasma after administration of each constituent crude drug of shimotsuto (n = 2 per sampling time per crude drug))” and the “Plasma collected 10 h postadministration (detection)” value is recorded as “+ (The number of + signs represent the sample number in which the ingredient was detected in the plasma after administration of each constituent crude drug of shimotsuto (n = 2 per sampling time per crude drug))”.

With `COc1c2ccoc2cc2oc(=O)ccc12` [Bergapten], the activation at 10 µM was determined as 0% on human TRPV4, 3% at human TRPA1, 0% on human TRPV1 and 0% at human TRPM8. In data set [2] (rat plasma, oral shimotsuto 1 g/kg, from mean concentration (n = 3) per time point, read-out: AUC0−last), the AUC(0-t) was 0.0105 ng·h/mL. The highest concentration (Cmax) in data set [2] (rat plasma, oral shimotsuto 1 g/kg, from mean concentration (n = 3) per time point, read-out: Cmax) is 0.0837 ng/mL. In addition, the Tmax in data set [2] (rat plasma, oral shimotsuto 1 g/kg, from mean concentration (n = 3) per time point, read-out: tmax) was found to be 15 min. Also, the “Plasma collected 1 h postadministration (detection)” value in data set [1] (setting [4]) is “+ (The number of + signs represent the sample number in which the ingredient was detected in the plasma after administration of each constituent crude drug of shimotsuto (n = 2 per sampling time per crude drug))”. For the same molecule, in data set [1] (setting [4]), the “Plasma collected 10 h postadministration (detection)” value is “Not detected”.

As a reminder, the EC50 is the midpoint of the concentration-response curve. For `CCCCC1OC(=O)c2ccccc21` (centres unmarked) [Butylphthalide], the activation at 10 µM at human TRPV4 is 0%; at human TRPA1, 73%; on human TRPV1, -1%; on human TRPM8, -1%. In addition, the “Activation of TRPA1 (in words)” value at human TRPA1 is given as “potently activated”. Also, the EC50 on human TRPA1 (dose–response test, Ca2+ influx, read-out: EC50 against TRPA1) turned out to be 3.2 µM. Further, the “Pharmacological action related to improvement of blood and the circulatory system” value in data set [3] (ref 9) was “Vasodilation”; in data set [3] (ref 13) it was “vasorelaxation and increased blood flow effects”. Moreover, the AUC(0-t) in data set [2] (rat, po, 1 g/kg) was determined as 4.12 ng·h/mL. In data set [2] (rat, po, 1 g/kg), the highest level (Cmax) was 13.7 ng/mL. The Tmax in data set [2] (rat, po, 1 g/kg) amounted to 30 min.

`O.Oc1cc(O)c2c(c1)O[C@H](c1ccc(O)c(O)c1)[C@@H](O)C2` [Catechin]: in data set [1] (oral Paeoniae Radix 1 g/kg), the “Plasma collected 1 h postadministration (detection)” value is given as “++ (The number of + signs represent the sample number in which the ingredient was detected in the plasma after administration of each constituent crude drug of shimotsuto (n = 2 per sampling time per crude drug))” and the “Plasma collected 10 h postadministration (detection)” value is “Not detected”.

With `COc1cc(/C=C/COC(=O)/C=C/c2ccc(O)c(OC)c2)ccc1O` [Coniferyl ferulate], in data set [1] (oral Cnidii Rhizoma 1 g/kg), the “Plasma collected 1 h postadministration (detection)” value is given as “++ (The number of + signs represent the sample number in which the ingredient was detected in the plasma after administration of each constituent crude drug of shimotsuto (n = 2 per sampling time per crude drug))” and the “Plasma collected 10 h postadministration (detection)” value is “+ (The number of + signs represent the sample number in which the ingredient was detected in the plasma after administration of each constituent crude drug of shimotsuto (n = 2 per sampling time per crude drug))”.

`COc1cc(O)c2c(=O)cc(C)oc2c1` [Eugenin]: in data set [1] (oral Cnidii Rhizoma 1 g/kg), the “Plasma collected 1 h postadministration (detection)” value is “++ (The number of + signs represent the sample number in which the ingredient was detected in the plasma after administration of each constituent crude drug of shimotsuto (n = 2 per sampling time per crude drug))” and the “Plasma collected 10 h postadministration (detection)” value is on record as “Not detected”.

Take `COc1cc(/C=C/C(=O)O)ccc1O` [Ferulic acid]: the activation at 10 µM is 0% at human TRPV4, 3% at human TRPA1, 0% at human TRPV1 and 5% at human TRPM8. Moreover, the “Pharmacological action related to improvement of blood and the circulatory system” value in data set [3] (ref 14) is “Vasodilation effect [14]”. Moreover, the AUC(0-t) in data set [2] (rat, po, 1 g/kg) was 75 ng·h/mL. The maximum concentration (Cmax) in data set [2] (rat, po, 1 g/kg) amounted to 12.4 ng/mL. In addition, the time to peak (Tmax) in data set [2] (rat, po, 1 g/kg) was found to be 15 min.

Values taken from publication PMC7902330, “Pharmacokinetic study of traditional Japanese Kampo medicine shimotsuto used to treat gynecological diseases in rats” (Journal of Natural Medicines, 2021).
